The record followed here is patent publication US20240116922A1, “IMIDAZO[1,2-A]PYRIDINE DERIVATIVES AS IRAK4 INHIBITORS AND THEIR USE IN THE TREATMENT OF DISEASE” (BIOGEN MA INC., priority 2020, published 2024).

Each structure is given as a SMILES string. Converted amounts (≈) assume the structure as drawn.

Series [1] can be described thus: Kpuu assay (in vivo brain-to-plasma unbound partition). The note with it: brain (unbound) versus plasma (unbound); intravenous infusion 4 to 24 h; unbound brain/plasma ratio; read-out: Brain Kpu, u.
Procedure: For the brain-to-plasma partition coefficient (Kp) evaluation, a dosing solution was intravenously infused into animals at a constant flow rate for 4 to 24 h. Blood samples were serially collected during infusion, and CSF and brain samples were harvested at the end of infusion.
Tissue samples were typically homogenized in phosphate buffer saline (PBS) using a bead ruptor.
CSF samples were typically diluted with 8% BSA in PBS to prevent from non-specific binding. Artificial CSF (aCSF) is used as the surrogate matrix.
Calibration curves were prepared by spiking the analyte(s) into blank matrices, which were processed together with plasma, tissue homogenate and/or CSF samples by protein precipitation using a proper organic solvent (e.g. acetonitrile and methanol) containing generic analogue internal standards (e.g. verapamil, chrysin and glyburide). Matrix matching was used when analyzing multiple matrices in the same run. Samples above the upper limit of quantitation (ULOQ) needed to be diluted into the calibration range using either a pre-extraction or post-extraction dilution approach.
Processed samples were analyzed by LC-MS/MS using a proper method performing within the acceptable sensitivity, selectivity, precision and accuracy. For an analytical run to be accepted, over 75% of the calibration standards in the dual calibration curves needed to be within 20% of the nominal concentrations.
Brain concentrations were compared against plasma concentrations at the corresponding timepoint for the calculation of partition coefficient (Kp).
Unbound drug partition coefficient (Kpuu), defined as the ratio of unbound drug partition across the blood-brain barrier, was calculated using the equation below:
[formula] • Cb: measured total drug concentration in brain • Fub: unbound drug fraction in brain • Cp: measured total drug concentration in plasma • Fup: unbound drug fraction in plasma
The unbound fraction of the test compound was determined based on the protocols described below.
% Free=(PAR of buffer side/PAR of plasma side)*100 • PAR—Peak area ratio (PAR) • Fu % Free. 100 • Fu=fraction unbound
The target of a further series is IRAK4 (Homo sapiens (Human), UniProt Q9NWZ3). The series can be described thus: IRAK4 MSD biochemical assay (2-hour 1 mM ATP). The note with it: 0.1 nM IRAK4, 1 mM ATP, 2 hour at room temperature.
Another series concerns the target MDR1 (Homo sapiens (Human), UniProt P08183). Kind of series: in vitro. The note with it: MDCK-MDR1.
A short description of series [2]: Kinetic solubility assay (CLND), pH 6.8. The note with it: aqueous buffer, kinetic from dmso stock; potassium phosphate buffer pH 6.8, 2% DMSO, 24 hours at ambient temperature. The format is physicochemical.

MDR1, sequence (P08183 whole entry): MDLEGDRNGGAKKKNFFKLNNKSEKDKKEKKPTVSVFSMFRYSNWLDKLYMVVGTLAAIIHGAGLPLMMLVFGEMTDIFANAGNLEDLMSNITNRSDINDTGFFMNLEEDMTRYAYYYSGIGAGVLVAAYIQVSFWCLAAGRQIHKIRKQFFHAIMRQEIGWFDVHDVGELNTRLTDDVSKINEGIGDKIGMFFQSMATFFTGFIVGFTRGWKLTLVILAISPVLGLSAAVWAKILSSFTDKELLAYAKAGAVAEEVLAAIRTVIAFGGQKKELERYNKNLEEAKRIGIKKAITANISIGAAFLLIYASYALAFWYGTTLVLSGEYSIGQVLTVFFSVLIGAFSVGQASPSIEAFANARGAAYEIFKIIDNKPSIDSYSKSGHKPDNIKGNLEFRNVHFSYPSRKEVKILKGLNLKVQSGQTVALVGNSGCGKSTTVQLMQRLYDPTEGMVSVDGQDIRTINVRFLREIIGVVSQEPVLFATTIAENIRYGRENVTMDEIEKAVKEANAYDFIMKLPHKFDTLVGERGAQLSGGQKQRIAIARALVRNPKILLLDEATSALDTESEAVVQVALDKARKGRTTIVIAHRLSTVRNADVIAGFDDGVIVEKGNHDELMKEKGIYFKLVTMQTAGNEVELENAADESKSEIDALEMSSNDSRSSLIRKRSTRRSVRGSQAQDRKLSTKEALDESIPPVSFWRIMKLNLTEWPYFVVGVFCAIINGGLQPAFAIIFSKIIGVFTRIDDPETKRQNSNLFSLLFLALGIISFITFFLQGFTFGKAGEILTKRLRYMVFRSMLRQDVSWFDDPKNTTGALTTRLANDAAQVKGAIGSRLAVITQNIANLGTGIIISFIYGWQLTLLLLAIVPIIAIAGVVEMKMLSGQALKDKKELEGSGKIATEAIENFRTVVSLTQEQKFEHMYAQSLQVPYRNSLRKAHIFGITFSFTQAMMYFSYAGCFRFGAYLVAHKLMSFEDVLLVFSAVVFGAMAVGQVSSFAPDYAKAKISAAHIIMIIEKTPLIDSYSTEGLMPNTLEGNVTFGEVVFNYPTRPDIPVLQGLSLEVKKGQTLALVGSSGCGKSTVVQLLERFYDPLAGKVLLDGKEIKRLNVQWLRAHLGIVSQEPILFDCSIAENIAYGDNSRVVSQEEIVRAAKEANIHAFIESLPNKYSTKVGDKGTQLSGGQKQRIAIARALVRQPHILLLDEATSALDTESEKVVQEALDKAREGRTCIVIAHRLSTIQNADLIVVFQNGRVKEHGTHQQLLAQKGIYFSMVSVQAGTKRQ
IRAK4, sequence (Q9NWZ3 whole entry): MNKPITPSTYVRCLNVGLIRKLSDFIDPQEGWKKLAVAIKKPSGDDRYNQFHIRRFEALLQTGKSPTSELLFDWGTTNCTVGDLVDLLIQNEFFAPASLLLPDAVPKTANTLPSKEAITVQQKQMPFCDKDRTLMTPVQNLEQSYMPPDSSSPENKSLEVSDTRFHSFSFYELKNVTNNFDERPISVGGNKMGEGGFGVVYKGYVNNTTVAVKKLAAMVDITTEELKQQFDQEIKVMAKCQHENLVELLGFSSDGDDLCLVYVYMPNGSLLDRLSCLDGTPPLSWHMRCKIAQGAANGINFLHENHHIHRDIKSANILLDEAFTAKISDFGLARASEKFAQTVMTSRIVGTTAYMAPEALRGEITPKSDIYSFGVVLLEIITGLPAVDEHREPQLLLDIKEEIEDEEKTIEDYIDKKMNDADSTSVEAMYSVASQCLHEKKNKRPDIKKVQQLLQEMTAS

Regarding `CC(C)Oc1cc2nc([C@]34CC[C@](C)(C3)OC4)cn2cc1C(=O)Nc1cccn(C2CC2)c1=O` (single isomer, unassigned) [Example 5], in series [1], the Kpuu (unbound brain-to-plasma partition coefficient) worked out at 0.38. The same compound came in with an IC50 on IRAK4 of 0.1 nM. Further, the efflux ratio at 120 min, 1 μM on MDR1 is 6.1. Also, the kinetic solubility at 24 h in series [2] amounted to 32.9 µg/mL (≈ 71.1 µM).

Turning to `COC[C@@]12CC[C@@](c3cn4cc(C(=O)Nc5cccn([C@H]6C[C@H]6F)c5=O)c(OC(C)C)nc4n3)(CO1)C2` (single isomer, unassigned) [Example 132], in series [1], the Kpuu (unbound brain-to-plasma partition coefficient) was found to be 0.14. Also, the kinetic solubility at 24 h in series [2] was 70.5 µg/mL (≈ 138 µM).

As to `CC(C)Oc1nc2nc(C34CCC(C)(CC3)OC4)cn2cc1C(=O)Nc1cccn(C2CC2)c1=O` [Example 77, N-(1-cyclopropyl-2-oxo-1,2-dihydropyridin-3-yl)-7-isopropoxy-2-(1-methyl-2-oxabicyclo[2.2.2]octan-4-yl)imidazo[1,2-a]pyrimidine-6-carboxamide], in series [1], the Kpuu (unbound brain-to-plasma partition coefficient) stood at 0.61. On IRAK4, the half-maximal inhibitory concentration (IC50) is 0.3 nM. At MDR1, the efflux ratio at 120 min, 1 μM worked out at 2.7. In addition, the kinetic solubility at 24 h in series [2] was 7.2 µg/mL (≈ 15.1 µM).

With `CC(C)Oc1nc2nc(C34COC(C)(C3)C4)cn2cc1C(=O)Nc1cccn(C2CC2)c1=O` [Example 18, N-(1-cyclopropyl-2-oxo-1,2-dihydropyridin-3-yl)-7-isopropoxy-2-(1-methyl-2-oxabicyclo[2.1.1]hexan-4-yl)imidazo[1,2-a]pyrimidine-6-carboxamide], the Kpuu (unbound brain-to-plasma partition coefficient) in series [1] was 0.7.

Turning to `O=C(Nc1cccn(C2CC2)c1=O)c1cn2cc(C34COC(CF)(C3)C4)nc2nc1OC1CCC1` [Example 33, 7-cyclobutoxy-N-(1-cyclopropyl-2-oxo-1,2-dihydropyridin-3-yl)-2-(1-(fluoromethyl)-2-oxabicyclo[2.1.1]hexan-4-yl)imidazo[1,2-a]pyrimidine-6-carboxamide], the Kpuu (unbound brain-to-plasma partition coefficient) in series [1] worked out at 0.45. This compound showed a kinetic solubility at 24 h in series [2] of 10.1 µg/mL (≈ 21.1 µM).

For `CC(C)Oc1nc2nc(C34COC(CF)(C3)C4)cn2cc1C(=O)Nc1cccn(C2CC2)c1=O` [Example 10, N-(1-cyclopropyl-2-oxo-1,2-dihydropyridin-3-yl)-2-(1-(fluoromethyl)-2-oxabicyclo[2.1.1]hexan-4-yl)-7-isopropoxyimidazo[1,2-a]pyrimidine-6-carboxamide], in series [1], the Kpuu (unbound brain-to-plasma partition coefficient) amounted to 0.22. Also, the solubility (kinetic) at 24 h in series [2] was 79.3 µg/mL (≈ 170 µM).

Consider `CC(C)Oc1cc2nc(C34COC(C)(C3)C4)cn2cc1C(=O)Nc1cccn([C@H]2C[C@@H]2F)c1=O` (single isomer, unassigned) [Example 155], for which, in series [1], the Kpuu (unbound brain-to-plasma partition coefficient) amounted to 0.36. For the same compound, in series [2], the solubility (kinetic) at 24 h is 35.8 µg/mL (≈ 76.7 µM).

For `CC(C)Oc1nc2nc([C@@]34CC[C@@](C)(C3)OC4)cn2cc1C(=O)Nc1cccc(C(F)F)n1` (single isomer, unassigned) [Comparator 4A, reference compound], the Kpuu (unbound brain-to-plasma partition coefficient) in series [1] is 0.4. For the same compound, the efflux ratio at 120 min, 1 μM at MDR1 amounted to 0.7. Besides, the kinetic solubility at 24 h in series [2] was 2 µg/mL (≈ 4.37 µM).

Regarding `CC[C@H](C)Oc1nc2nc([C@]34CC[C@](C)(C3)OC4)cn2cc1C(=O)Nc1cccn(C2CC2)c1=O` [Example 50, 7-((S)-sec-butoxy)-N-(1-cyclopropyl-2-oxo-1,2-dihydropyridin-3-yl)-2-((1R,4S)-1-methyl-2-oxabicyclo[2.2.1]heptan-4-yl)imidazo[1,2-a]pyrimidine-6-carboxamide], in series [1], the Kpuu (unbound brain-to-plasma partition coefficient) was determined as 0.66. The compound further showed an IC50 against IRAK4 of 0.5 nM. For the same compound, the efflux ratio at 120 min, 1 μM at MDR1 is 2.9.

With `CC(C)Oc1nc2nc(C34CCC(C)(CC3)OC4)cn2cc1C(=O)Nc1cccn(C)c1=O` [Comparator 6D, 7-isopropoxy-N-(-methyl-2-oxo-1,2-dihydropyridin-3-yl)-2-(1-methyl-2-oxabicyclo[2.2.2]octan-4-yl)imidazo[1,2-a]pyrimidine-6-carboxamide, reference compound], in series [1], the Kpuu (unbound brain-to-plasma partition coefficient) was found to be 0.4. Besides, the efflux ratio at 120 min, 1 μM on MDR1 amounted to 3. The kinetic solubility at 24 h in series [2] was found to be 11.2 µg/mL (≈ 24.8 µM).

As to `Cc1cnc2c(NC(=O)c3cn4cc(C56COC(C)(C5)C6)nc4nc3OC(C)C)cnn2c1` [Comparator 2B, 7-isopropoxy-2-(1-methyl-2-oxabicyclo[2.1.1]hexan-4-yl)-N-(6-methylpyrazolo[1,5-a]pyrimidin-3-yl)imidazo[1,2-a]pyrimidine-6-carboxamide, reference compound], the Kpuu (unbound brain-to-plasma partition coefficient) in series [1] came to 0.3.

`CC(C)Oc1nc2nc([C@@]34CC[C@@](C)(C3)OC4)cn2cc1C(=O)Nc1cccn(C2CC2)c1=O` (single isomer, unassigned) [Example 12]: the Kpuu (unbound brain-to-plasma partition coefficient) in series [1] was 0.33. The compound also came in with a solubility (kinetic) at 24 h in series [2] of 22.3 µg/mL (≈ 48.1 µM).

For `CC(C)Oc1nc2nc(C34COC(C)(C3)C4)cn2cc1C(=O)Nc1cccn([C@H]2C[C@H]2F)c1=O` [Example 159, N-(1-((1S,2R)-2-fluorocyclopropyl)-2-oxo-1,2-dihydropyridin-3-yl)-7-isopropoxy-2-(1-methyl-2-oxabicyclo[2.1.1]hexan-4-yl)imidazo[1,2-a]pyrimidine-6-carboxamide], in series [1], the Kpuu (unbound brain-to-plasma partition coefficient) stood at 0.28.

For `COC[C@]12CC[C@](c3cn4cc(C(=O)Nc5cccn([C@H]6C[C@H]6F)c5=O)c(OC(C)C)nc4n3)(CO1)C2` (single isomer, unassigned) [Example 130], in series [1], the Kpuu (unbound brain-to-plasma partition coefficient) was found to be 0.08. The solubility (kinetic) at 24 h in series [2] came to 63.6 µg/mL (≈ 124 µM).

Regarding `CC(C)Oc1nc2nc(C34COC(C)(C3)C4)cn2cc1C(=O)Nc1cccn([C@H]2C[C@H]2C)c1=O` [Example 136, 7-isopropoxy-2-(1-methyl-2-oxabicyclo[2.1.1]hexan-4-yl)-N-(1-((1S,2R)-2-methylcyclopropyl)-2-oxo-1,2-dihydropyridin-3-yl)imidazo[1,2-a]pyrimidine-6-carboxamide], the Kpuu (unbound brain-to-plasma partition coefficient) in series [1] is 0.4.

Regarding `CC(C)Oc1nc2nc([C@@H]3CCCOC3)cn2cc1C(=O)Nc1cccn(C2CC2)c1=O` (single isomer, unassigned) [Example 108], the Kpuu (unbound brain-to-plasma partition coefficient) in series [1] came to 0.52. For the same compound, on IRAK4, the half-maximal inhibitory concentration (IC50) was 0.1 nM. On MDR1, the efflux ratio at 120 min, 1 μM is 4.

For `CC(C)Oc1nc2nc(C34COC(C)(C3)C4)cn2cc1C(=O)Nc1cccc(C(F)F)n1` [Comparator 2A, N-(6-(difluoromethyl)pyridin-2-yl)-7-isopropoxy-2-(1-methyl-2-oxabicyclo[2.1.1]hexan-4-yl)imidazo[1,2-a]pyrimidine-6-carboxamide, reference compound], in series [1], the Kpuu (unbound brain-to-plasma partition coefficient) was 0.4. Besides, at MDR1, the efflux ratio at 120 min, 1 μM worked out at 1.1. The compound further registered a kinetic solubility at 24 h in series [2] of 2.4 µg/mL (≈ 5.41 µM).

`CC(C)Oc1cc2nc([C@@]34CC[C@@](C)(C3)OC4)cn2cc1C(=O)Nc1cccn(C)c1=O` (single isomer, unassigned) [Comparator 3D, reference compound]: in series [1], the Kpuu (unbound brain-to-plasma partition coefficient) is 1.1. At MDR1, the efflux ratio at 120 min, 1 μM came to 3.1. The compound also returned a solubility (kinetic) at 24 h in series [2] of 49.3 µg/mL (≈ 113 µM).

As for `CC(C)Oc1cc2nc(C34CCC(C)(CC3)OC4)cn2cc1C(=O)Nc1ccn(C)n1` [Comparator 5C, 7-isopropoxy-N-(1-methyl-1H-pyrazol-3-yl)-2-(1-methyl-2-oxabicyclo[2.2.2]octan-4-yl)imidazo[1,2-a]pyridine-6-carboxamide, reference compound], the Kpuu (unbound brain-to-plasma partition coefficient) in series [1] was found to be 0.4. For the same compound, the efflux ratio at 120 min, 1 μM on MDR1 came to 2.2. Moreover, in series [2], the kinetic solubility at 24 h was determined as 39.6 µg/mL (≈ 93.5 µM).

With `CC(C)Oc1cc2nc(C34CCC(C)(CC3)OC4)cn2cc1C(=O)Nc1cccn(C)c1=O` [Comparator 5D, 7-isopropoxy-N-(1-methyl-2-oxo-1,2-dihydropyridin-3-yl)-2-(1-methyl-2-oxabicyclo[2.2.2]octan-4-yl)imidazo[1,2-a]pyridine-6-carboxamide, reference compound], the Kpuu (unbound brain-to-plasma partition coefficient) in series [1] came to 0.6. Further, the efflux ratio at 120 min, 1 μM at MDR1 is 2. In series [2], this compound showed a solubility (kinetic) at 24 h of 45.6 µg/mL (≈ 101 µM).

Take `CC(C)Oc1cc2nc(C34COC(C)(C3)C4)cn2cc1C(=O)Nc1cccc(C(F)F)n1` [Comparator 1A, N-(6-(difluoromethyl)pyridin-2-yl)-7-isopropoxy-2-(1-methyl-2-oxabicyclo[2.1.1]hexan-4-yl)imidazo[1,2-a]pyridine-6-carboxamide, reference compound]: in series [1], the Kpuu (unbound brain-to-plasma partition coefficient) stood at 0.4. On MDR1, the efflux ratio at 120 min, 1 μM was 0.9. Further, in series [2], the solubility (kinetic) at 24 h is 2.1 µg/mL (≈ 4.75 µM).

`CC(C)Oc1nc2nc([C@@]34CC[C@@](CF)(C3)OC4)cn2cc1C(=O)Nc1cccn(C2CC2)c1=O` (single isomer, unassigned) [Example 46]: in series [1], the Kpuu (unbound brain-to-plasma partition coefficient) came to 1.81. The kinetic solubility at 24 h in series [2] was 9 µg/mL (≈ 18.7 µM).

As for `COCC12CC(c3cn4cc(C(=O)Nc5cccn([C@H]6C[C@H]6F)c5=O)c(OC5CCC5)nc4n3)(CO1)C2` [Example 128, 7-cyclobutoxy-N-(1-((1S,2R)-2-fluorocyclopropyl)-2-oxo-1,2-dihydropyridin-3-yl)-2-(1-(methoxymethyl)-2-oxabicyclo[2.1.1]hexan-4-yl)imidazo[1,2-a]pyrimidine-6-carboxamide], at IRAK4, the IC50 worked out at 0.3 nM. Besides, the efflux ratio at 120 min, 1 μM at MDR1 is 20.8. Further, the solubility (kinetic) at 24 h in series [2] is 72.5 µg/mL (≈ 142 µM).

As to `CC[C@H](C)Oc1cc2nc([C@@]34CC[C@@](C)(C3)OC4)cn2cc1C(=O)Nc1cccn(C2CC2)c1=O` (single isomer, unassigned) [Example 22], the IC50 against IRAK4 came out at 0.3 nM. The efflux ratio at 120 min, 1 μM at MDR1 amounted to 4.3. This compound also showed a kinetic solubility at 24 h in series [2] of 69 µg/mL (≈ 145 µM).

By IC50 is commonly meant the point on the concentration scale where inhibition reaches its midpoint. A low value points to higher potency. As a reminder, the efflux ratio is a quotient of directional permeabilities that is used to spot active efflux. By solubility (kinetic) is commonly meant solubility judged after dilution from a stock solution rather than from solid.
